The subject of series [1] is Mus musculus. As to the kind of experiment: Antifibrotic activity in CCl4-induced C57BL/6 mouse model of liver fibrosis assessed as reduction in serum ALT level treated at 150 ug/kg, ip daily for 3 weeks. As to conditions: dose 150.0 µg/kg. The format is functional, organism-based.
In series [2] the test system is Mus musculus. The series is described as follows: Antifibrotic activity in CCl4-induced C57BL/6 mouse model of liver fibrosis assessed as reduction in serum AST level treated at 150 ug/kg, ip daily for 3 weeks. The format is functional, organism-based. Conditions: dose 150.0 µg/kg.
The test system of series [3] is LX2. As to the kind of experiment: Inhibition of elastin receptor complex elastin binding protein subunit in human LX2 cells assessed as inhibition of EDP induced PI3K phosphorylation treated at 10 uM for 24 hrs by Western blot analysis. The format is cell-based.
In series [4] the test system is LX2. The series is described as follows: Inhibition of elastin receptor complex elastin binding protein subunit in human LX2 cells assessed as inhibition of EDP induced ERK phosphorylation treated at 10 uM for 24 hrs by Western blot analysis. The class given is cell-based.
Series [5] deals with LX-2. The series is described as follows: Antifibrotic activity against TGF-beta induced human LX2 cells assessed as reduction of alpha-SMA expression measured at 10 uM for 24 hrs by measuring fluorescence intensity relative to control. Further details: scale not given: the % may be the effect or the level left. The class given is functional.
For series [6], the system named is LX-2. The series is described as follows: Antifibrotic activity against TGF-beta induced human LX2 cells assessed as inhibition of neuraminidase activity using NA fluorogenic substrate by measuring fluorescence intensity relative to control. The format is functional.
Series [7] deals with LX2. The series is described as follows: Inhibition of elastin receptor complex elastin binding protein subunit in human LX2 cells assessed as inhibition of EDP induced AMPK phosphorylation treated at 10 uM for 24 hrs by Western blot analysis. The format is cell-based. A general note: In western blotting, separated proteins are transferred to a membrane and probed.
The test system of series [8] is LX-2. As to the kind of experiment: Antiproliferative activity against TGF-beta induced human LX2 cells assessed as decrease in cell proliferation at 10 uM for 24 hrs by BeyoClick EdU cells proliferation kit with Alex Fluor 488 and DAPI staining analysis. The class given is functional, cell-based.
The test system of series [9] is LX-2. The series is described as follows: Antifibrotic activity against TGF-beta induced human LX2 cells assessed as inhibition of collagen I expression by measuring fluorescence intensity relative to control. The class given is functional.
The test system of series [10] is LX-2. The series is described as follows: Antifibrotic activity against TGF-beta induced human LX2 cells assessed as inhibition of alpha-SMA expression by measuring fluorescence intensity relative to control. The format is functional.
Series [11] has as its system LX-2. As to the kind of experiment: Antifibrotic activity against TGF-beta induced human LX2 cells assessed as reduction of collagen I expression measured at 10 uM for 24 hrs by measuring fluorescence intensity relative to control. Also on record: scale not given: the % may be the effect or the level left. The format is functional.
The subject of series [12] is LX-2. As to the kind of experiment: Antifibrotic activity against TGF-beta induced human LX2 cells assessed as reduction of alpha-SMA expression derived peptide measured by Western blotting analysis. As to conditions: dose 0.01-100 µmol/L. The format is functional, cell-based.
Series [13] concerns LX-2. As to the kind of experiment: Antifibrotic activity against TGF-beta induced human LX2 cells assessed as inhibition of neuraminidase activity using NA fluorogenic substrate measured at 10 uM for 24 hrs by measuring fluorescence intensity. The class given is functional, cell-based.
For series [14], the system named is LX-2. As to the kind of experiment: Antifibrotic activity against TGF-beta induced human LX2 cells assessed as reduction of collagen I expression measured at 10 uM for 24 hrs by measuring fluorescence intensity. The format is functional, cell-based.
The test system of series [15] is LX-2. The series is described as follows: Antifibrotic activity against TGF-beta induced human LX2 cells assessed as reduction of alpha-SMA expression measured at 10 uM for 24 hrs by measuring fluorescence intensity. The format is functional, cell-based.
Series [16] in a line: Stability in mouse serum measured at 0 to 48 hrs by RP-HPLC-MS analysis. The format is ADME, cell-free. Conditions: time 0-48 hrs.
Series [17] is described as follows: Tmax in Sprague-Dawley rat plasma at 0.6 mg/kg, sc by HPLC-MS/MS analysis. The class given is ADME, organism-based.
Series [18] concerns Mus musculus. As to the kind of experiment: Antifibrotic activity in CCl4-induced C57BL/6 mouse model of liver fibrosis assessed as reduction of collagen deposition in liver treated at 150 ug/kg, ip daily for 3 weeks fasted for 9 hrs after last dose and sacrificed after 8 hrs of fasting by hematoxylin and eosin staining analysis. The class given is functional, organism-based. Conditions: dose 150.0 µg/kg, time 3.033 weeks.

The nature of series [19]: Half life in Sprague-Dawley rat plasma at 0.6 mg/kg, sc by HPLC-MS/MS analysis. The format is ADME, organism-based.
Series [20] concerns Mus musculus. As to the kind of experiment: Antifibrotic activity in CCl4-induced C57BL/6 mouse model of liver fibrosis assessed as reduction in alpha-SMA level treated at 150 ug/kg, ip daily for 3 weeks by Western blo analysis. Conditions: dose 150.0 µg/kg. The class given is functional, organism-based.

Calls of active or inactive are those of the source. No cut-off for these calls is given here. Where a SMILES comes first, the peptide text is derived from it. Bridges are numbered along the chain shown (N, C = ends).

Regarding `Cc1ccc(=O)n(-c2ccccc2)c1`, the outcome in series [1] and in [2] was Active.

On to `CC(C)C[C@H](NC(=O)[C@@H]1CCCN1C(=O)[C@H](CO)NC(=O)[C@H](C)NC(=O)[C@@H]1CCC(=O)N[C@@H](C(C)C)C(=O)N[C@@H](C(C)C)C(=O)NCC(=O)N[C@@H](CO)C(=O)N2CCC[C@H]2C(=O)N[C@@H](CO)C(=O)N[C@@H](C)C(=O)N[C@@H](CCC(N)=O)C(=O)N[C@@H](CC(=O)O)C(=O)N1)C(=O)O` (VVGSPSAQDEASPL-OH; lactam N-10), for which the inhibition entry in series [3], in series [4] and in [7] was “Active” each time. Besides, the Activity in series [5] and in [11] was around 50% throughout. The “inhibition (INH)” value was 68% in series [6], 33.5% in series [9] and 34.8% in series [10]. The outcome in series [8] was Active.

`CC(C)[C@@H]1NC(=O)CNC(=O)[C@@H]2CCCN2C(=O)[C@H](CO)NC(=O)[C@H](C)NC(=O)[C@H](CCC(=O)O)NC(=O)[C@H](CC(=O)O)NC(=O)[C@H](CCC(N)=O)NC(=O)[C@H](C)NC(=O)[C@H](Cc2ccccc2)NC(=O)[C@@H]2CCCN2C(=O)[C@H](CO)NC(=O)CNC(=O)[C@H](C(C)C)NC1=O` (cyclo(AQDEASPGVVGSPF)): the outcome in series [12] was inactive. The outcome in series [1] and in [2] was Active. Besides, the “inhibition (INH)” value was determined as 40.9% in series [6] and 0.1% in [10]. For the same compound, in [9], the inhibition result was “inactive”.

On to `CC(C)C[C@@H]1NC(=O)[C@@H]2CCCN2C(=O)[C@H](CO)NC(=O)CNC(=O)[C@H](C(C)C)NC(=O)[C@H](C(C)C)NC(=O)[C@H](CC(C)C)NC(=O)[C@@H]2CCCN2C(=O)[C@H](CO)NC(=O)[C@H](C)NC(=O)[C@H](CCC(=O)O)NC(=O)[C@H](CC(=O)O)NC(=O)[C@H](CCC(N)=O)NC(=O)[C@H](C)NC1=O` (cyclo(AQDEASPLVVGSPL)), for which the result in [1] and in series [2] was Active. The figures for the “inhibition (INH)” value in series [6], in series [9] and in series [10] were 9%, 9.8% and 1.7%, respectively.

Take H-VVGSPSAQDEASAL-NH2: the outcome in series [13], in series [14] and in series [15] was inactive. For the same compound, the “inhibition (INH)” value was 23.9% in [6], 20.6% in [9] and 18.5% in series [10].

For orientation: Tmax means the time at which the peak concentration occurs. By half-life is commonly meant the time in which the quantity being followed falls by half. On to H-VVGSPSAQDEASPL-NH2, for which the figures for the Activity entry in [12], in [5] and in series [11] were “Dose-Dependent Effect”, around 50% and around 50%, respectively. Further, the result in series [14], in series [18], in [1], in series [2], in series [20] and in series [8] was Active. Further, in series [15], the outcome was Active. The same compound had a Stability in series [16] of 40%. For the same compound, the Tmax in series [17] was 4.8 min. Also, the inhibition entry in series [3], in series [4] and in [7] was “Active” in each case. Further, the “inhibition (INH)” value turned out to be 37% in series [6], 22.5% in series [9] and 27.5% in series [10]. This compound also showed a half-life in series [19] of 4.8 min.

Source of the values: ChEMBL document CHEMBL5380820, “Design and Discovery of Novel Cyclic Peptides as EDPs-EBP Interaction Inhibitors for the Treatment of Liver Fibrosis” (J Med Chem, 2023).
